The results in this text go back to ChEMBL document CHEMBL1158532, “A novel kavalactone derivative protects against H2O2-induced PC12 cell death via Nrf2/ARE activation” (Bioorg Med Chem, 2010).

Series [1] deals with PC-12. Nature of the series: Induction of HO-1 protein expression in rat PC12 cells at 10 uM after 24 hrs by Western blot analysis. It counts as functional, cell-based.
Series [2] concerns the target T1, Nuclear factor erythroid 2-related factor 2 (Rattus norvegicus) (UniProt O54968).
T1 sequence (whole entry): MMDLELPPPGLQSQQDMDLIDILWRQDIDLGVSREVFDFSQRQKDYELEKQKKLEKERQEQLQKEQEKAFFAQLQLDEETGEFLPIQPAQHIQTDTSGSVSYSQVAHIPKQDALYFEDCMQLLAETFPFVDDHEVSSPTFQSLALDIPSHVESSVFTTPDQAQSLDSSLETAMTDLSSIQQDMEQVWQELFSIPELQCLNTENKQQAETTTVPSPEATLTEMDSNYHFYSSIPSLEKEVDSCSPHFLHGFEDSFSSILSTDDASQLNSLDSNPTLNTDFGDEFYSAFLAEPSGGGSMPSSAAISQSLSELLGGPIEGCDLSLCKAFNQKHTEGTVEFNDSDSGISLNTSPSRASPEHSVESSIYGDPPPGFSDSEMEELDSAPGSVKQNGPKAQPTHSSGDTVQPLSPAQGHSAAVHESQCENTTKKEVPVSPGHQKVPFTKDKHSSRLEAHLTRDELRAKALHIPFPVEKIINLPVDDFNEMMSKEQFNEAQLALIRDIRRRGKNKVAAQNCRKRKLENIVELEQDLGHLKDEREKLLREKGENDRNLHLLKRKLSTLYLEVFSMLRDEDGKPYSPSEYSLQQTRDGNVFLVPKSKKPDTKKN
Nature of the series: Activation of Nrf2 in rat PC12 cells at 10 uM after 24 hrs by antioxidant response element-driven luciferase reporter gene assay. It counts as functional, cell-based. To be noted: PC-12.

Series [3] has as its system PC-12. Nature of the series: Induction of HO-1 protein expression in rat PC12 cells at 10 uM after 24 hrs by Western blot analysis relative to yangonin. It counts as functional.
The target in series [4] is T1, Nuclear factor erythroid 2-related factor 2 (Rattus norvegicus). Nature of the series: Activation of Nrf2 in rat PC12 cells at 10 uM after 24 hrs by antioxidant response element-driven luciferase reporter gene assay relative to methysticin. It counts as functional, cell-based. To be noted: PC-12.
Series [5] concerns PC-12. Nature of the series: Increase in HO-1 protein expression in rat PC12 cells at 10 uM treated 24 hrs before H202 challenge measured after 24 hrs by Western blot analysis. It counts as functional, cell-based.
Series [6] concerns PC-12. Nature of the series: Induction of HO-1 protein expression in rat PC12 cells at 10 uM after 3 hrs by Western blot analysis in presence of 20 uM MEK1/2 inhibitor PD-98059. Format: functional, cell-based.
In series [7] the target is RAC-alpha serine/threonine-protein kinase (Rattus norvegicus) (UniProt P47196). Nature of the series: Increase in Akt phosphorylation in rat PC12 cells at 10 uM after 24 hrs by Western blot analysis. It counts as cell-based. The following applies: PC-12.
RAC-alpha serine/threonine-protein kinase (Rattus norvegicus), sequence (P47196 whole entry): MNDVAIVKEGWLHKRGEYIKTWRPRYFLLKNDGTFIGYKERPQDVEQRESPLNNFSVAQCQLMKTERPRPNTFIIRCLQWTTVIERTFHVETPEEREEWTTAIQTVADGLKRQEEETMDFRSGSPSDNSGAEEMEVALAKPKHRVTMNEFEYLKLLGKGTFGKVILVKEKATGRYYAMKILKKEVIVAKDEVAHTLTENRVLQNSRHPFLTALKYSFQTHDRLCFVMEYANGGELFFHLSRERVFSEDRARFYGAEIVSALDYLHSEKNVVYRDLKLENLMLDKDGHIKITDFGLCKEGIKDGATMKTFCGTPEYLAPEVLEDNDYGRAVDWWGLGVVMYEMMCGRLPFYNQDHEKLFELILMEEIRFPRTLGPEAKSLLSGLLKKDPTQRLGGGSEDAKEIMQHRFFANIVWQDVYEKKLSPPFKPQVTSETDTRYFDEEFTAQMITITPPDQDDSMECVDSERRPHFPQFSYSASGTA
The subject of series [8] is PC-12. Nature of the series: Induction of HO-1 protein expression in rat PC12 cells at 10 uM after 24 hrs by Western blot analysis relative to methysticin. It counts as functional.
The test system of series [9] is PC-12. Nature of the series: Induction of HO-1 protein expression in rat PC12 cells at 10 uM after 24 hrs by Western blot analysis relative to control. Format: functional.
The subject of series [10] is PC-12. Nature of the series: Increase in p38 phosphorylation in rat PC12 cells at 10 uM after 5 mins by Western blot analysis. Format: cell-based.
Series [11] concerns the target T1, Nuclear factor erythroid 2-related factor 2 (Rattus norvegicus). Nature of the series: Activation of Nrf2 in rat PC12 cells after 24 hrs by antioxidant response element-driven luciferase reporter gene assay relative to yangonin. Format: functional, cell-based. To be noted: PC-12.
Series [12] has the same target. Nature of the series: Activation of Nrf2 in rat PC12 cells at 10 uM after 24 hrs by antioxidant response element-driven luciferase reporter gene assay relative to kawain. It counts as functional, cell-based. To be noted: PC-12.
Series [13] concerns PC-12. Nature of the series: Cytotoxicity against rat PC12 cells at 100 uM after 24 hrs by WST8 assay. It counts as cell-based. The following applies: pc-12, 24 h.
Series [14] relates to PC-12. Nature of the series: Induction of Nrf2 release in rat PC12 cells assessed as increase in intracellular ROS level at 10 uM after 3 hrs by CM-H2-DCFDA staining-based fluorescence assay. It counts as functional, cell-based.
For series [15], the system named is PC-12. Nature of the series: Cytotoxicity against rat PC12 cells assessed as effect on cellular morphology at 50 to 100 uM after 24 hrs by WST8 assay. Format: cell-based. The following applies: pc-12, 24 h.
Series [16] addresses T1, Nuclear factor erythroid 2-related factor 2 (Rattus norvegicus). Nature of the series: Activation of Nrf2 in rat PC12 cells at 10 uM after 24 hrs by antioxidant response element-driven luciferase reporter gene assay relative to yangonin. To be noted: PC-12. It counts as functional, cell-based.
The test system of series [17] is PC-12. Nature of the series: Increase in NQO1 protein expression in rat PC12 cells at 10 uM after 3 hrs by Western blot analysis. It counts as functional, cell-based.
Series [18] addresses T2, Mitogen-activated protein kinase 1 and 3 (ERK2 and ERK1) (Rattus norvegicus) (UniProt P63086+P21708). Nature of the series: Increase in Erk1/2 phosphorylation in rat PC12 cells at 10 uM after 6 hrs by Western blot analysis. It counts as cell-based. To be noted: PC-12.
Series [19] deals with PC-12. Nature of the series: Induction of NQO1 protein expression in rat PC12 cells at 10 uM after 24 hrs by Western blot analysis relative to control. Format: functional.
Series [20] has as its system PC-12. Nature of the series: Induction of HO-1 protein expression in rat PC12 cells at 10 uM after 3 hrs by Western blot analysis in presence of 2.5 […] N-acetyl-cysteine. It counts as functional, cell-based.
Series [21] has as its target T2, Mitogen-activated protein kinase 1 and 3 (ERK2 and ERK1) (Rattus norvegicus). Nature of the series: Increase in Erk1/2 phosphorylation in rat PC12 cells at 10 uM after 5 mins by Western blot analysis. Format: cell-based. To be noted: PC-12.
Series [22] concerns PC-12. Nature of the series: Induction of gamma-GCSc catalytic subunit protein expression in rat PC12 cells at 10 uM after 24 hrs by Western blot analysis relative to control. Format: functional.
Series [23] concerns PC-12. Nature of the series: Induction of HO-1 protein expression in rat PC12 cells at 10 uM after 3 hrs by Western blot analysis in presence of 5 uM p38 inhibitor SB-203580. Format: functional, cell-based.
Series [24] relates to PC-12. Nature of the series: Induction of HO-1 protein expression in rat PC12 cells at 10 uM after 24 hrs by Western blot analysis relative to kawain. Format: functional.
The subject of series [25] is PC-12. Nature of the series: Neuroprotective activity against H202-induced rat PC12 cell death at 10 uM treated 24 hrs before H202 challenge measured after 24 hrs by WST8 assay. Format: functional, cell-based.
For series [26], the system named is PC-12. Nature of the series: Induction of gamma-GCSc catalytic subunit protein expression in rat PC12 cells at 10 uM after 12 hrs by Western blot analysis. It counts as functional, cell-based.
Series [27] concerns the target T1, Nuclear factor erythroid 2-related factor 2 (Rattus norvegicus). Nature of the series: Activation of Nrf2 in rat PC12 cells assessed as induction of translocation into nucleus at 10 uM after 24 hrs by Western blot analysis. It counts as functional, cell-based. To be noted: PC-12.
Series [28] has as its system PC-12. Nature of the series: Induction of Nrf2 release in rat PC12 cells assessed as increase in intracellular ROS level at 10 uM after 1 hr by CM-H2-DCFDA staining-based fluorescence assay. Format: functional, cell-based.
For series [29], the system named is PC-12. Nature of the series: Increase in HO-1 protein expression in rat PC12 cells at 10 uM after 3 hrs by Western blot analysis. It counts as functional, cell-based.
For series [30], the target named is T1, Nuclear factor erythroid 2-related factor 2 (Rattus norvegicus). Nature of the series: Activation of Nrf2 in rat PC12 cells assessed as induction of translocation into nucleus at 10 uM after 30 mins by Western blot analysis. Format: functional, cell-based. The following applies: PC-12.

Active and inactive are the calls of the source. The rule behind the calls is not given here.

T2 sequence (P21708 whole entry, looked up): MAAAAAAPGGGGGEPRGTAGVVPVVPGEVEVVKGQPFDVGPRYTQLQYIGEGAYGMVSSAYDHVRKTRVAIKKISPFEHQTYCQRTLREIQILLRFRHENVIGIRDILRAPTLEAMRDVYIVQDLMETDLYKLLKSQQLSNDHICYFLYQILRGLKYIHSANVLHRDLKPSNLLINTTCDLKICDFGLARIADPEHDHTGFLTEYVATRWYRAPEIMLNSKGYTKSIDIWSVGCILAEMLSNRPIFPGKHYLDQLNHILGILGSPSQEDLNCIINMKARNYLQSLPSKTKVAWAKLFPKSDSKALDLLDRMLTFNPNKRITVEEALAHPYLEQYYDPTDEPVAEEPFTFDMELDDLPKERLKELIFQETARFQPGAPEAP
T2 sequence (P63086 whole entry, looked up): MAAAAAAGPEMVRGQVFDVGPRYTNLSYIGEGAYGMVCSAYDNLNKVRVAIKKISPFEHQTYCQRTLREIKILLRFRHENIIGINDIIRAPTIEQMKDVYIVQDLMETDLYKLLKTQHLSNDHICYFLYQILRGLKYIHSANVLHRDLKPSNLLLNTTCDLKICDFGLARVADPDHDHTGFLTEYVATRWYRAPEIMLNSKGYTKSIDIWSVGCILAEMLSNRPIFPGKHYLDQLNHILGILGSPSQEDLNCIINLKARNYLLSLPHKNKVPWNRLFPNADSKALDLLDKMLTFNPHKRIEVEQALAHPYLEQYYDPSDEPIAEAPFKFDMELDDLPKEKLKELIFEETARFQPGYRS

Regarding `COC1=CC(=O)O[C@@H](/C=C/c2ccc3c(c2)OCO3)C1`, the outcome in series [1] and in [2] was Active.

On to `COC1=CC(=O)O[C@@H](/C=C/c2ccccc2)C1`, for which the result in series [1] and in series [2] was Active.

Consider `COCc1c(OC)cc(=O)oc1/C=C/c1c(Cl)cccc1Cl`, for which the “fold change (FC)” value in series [3] was found to be 3; in series [4], 2; in series [8], 3; in series [9] it was 2; in series [12], 2; in series [16], 2. Also, the figures for the “fold change (FC)” value in [19], in series [22] and in [24] were 1.3, 2 and 3, respectively. Also, the result in series [5], in series [10], in [17], in series [21], in series [25] and in series [26] was Active. In addition, the outcome in series [27], in [28], in series [29] and in [30] was Active. The outcome in series [6], in [7], in series [14], in series [18], in series [20] and in [23] was inactive. For the same molecule, the Activity entry in series [11] was “Dose-dependent effect”; in series [13] it was “Non-toxic”; in series [15] it was “Toxic”.

Take `COc1ccc(/C=C/c2cc(OC)cc(=O)o2)cc1`: the outcome in series [1] and in series [2] was Active.
